Experimental data as given in patent US5017568A, “Steriod 5-alpha-reductase inhibitors” (SmithKline Beecham Corporation, priority 1990, dated 1991).
Entries after “also recorded” stand apart in the source; their conditions may differ. Read-outs that look alike come from different tables or passages of the source.

Experiments:
[1] = molecular target: T1, human prostatic steroid 5-α-reductase (Homo sapiens, UniProt P31213); assay: Inhibition of human prostatic steroid 5-α-reductase (conversion of [14C]-testosterone, prostatic particulates); format: biochemical; conditions: for Ki: pH 5.0, 37° C., competitive versus testosterone assumed, Dixon analysis, read-out: Inhibition Constants of Human Prostatic Steroid 5-α-Reductase, Ki
T1 construct: Prostatic particles were obtained by differential centrifugation; from tissue; host or cells: hyperplastic human prostate, particulate fraction (140,000 x g pellet)
T1 sequence (P31213 1-254): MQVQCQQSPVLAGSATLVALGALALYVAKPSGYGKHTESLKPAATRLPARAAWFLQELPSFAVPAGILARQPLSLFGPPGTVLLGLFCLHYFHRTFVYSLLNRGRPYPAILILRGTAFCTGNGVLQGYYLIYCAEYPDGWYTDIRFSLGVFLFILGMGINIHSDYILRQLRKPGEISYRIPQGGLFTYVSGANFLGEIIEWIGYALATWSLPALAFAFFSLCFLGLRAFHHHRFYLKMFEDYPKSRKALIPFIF
Procedure: Such diseases and conditions include acne vulgaris, seborrhea, female hirsutism, prostate diseases such as benign prostatic hypertrophy and prostatic adenocarcinoma and male pattern baldness. The potency of several compounds of the invention was tested for potency in inhibiting human steroid 5-α-reductase using tissue from hyperplastic human prostates. In determining potency in inhibiting the human enzyme, the following procedure was employed:
Frozen human prostates were thawed and minced into small pieces (5 mm^3). The tissue was homogenized in 3 to 5 volumes of 20 mM potassium phosphate, pH 6.5, buffer containing 0.33 M sucrose, 1 mM dithiothreitol, and 50 μM NADPH with a Brinkmann Polytron (Sybron Corporation, Westbury, N.Y.). The solution was subjected to sonication for 3 to 5 minutes with a Sonifier Branson Sonic Power Co.) followed by hand homogenization in a glass-to-glass Dounce homogenizer (Kontes Glass Company, Vineland, N.J.).
Prostatic particles were obtained by differential centrifugation at 600 or 1,000 x g for 20 minutes and 140,000 x g for 60 minutes at 4° C. The pellet obtained from the 140,000 x g centrifugation was washed with 5 to 10 tissue volumes of the buffer described above and recentrifuged at 140,000 x g. The resulting pellet was suspended in 20 mM potassium phosphate buffer, pH 6.5, containing 20% glycerol, 1 mM dithiothreitol, and 50 μM NADPH. The suspended particulate solution was stored at -80° C.
A constant amount of [^14 C]-testosterone (52 to 55 mCi/mmol, New England Nuclear, Boston, MA) in ethanol and varying amounts of the potential inhibitor in ethanol were deposited in test tubes and concentrated to dryness in a SAVANT Speed Vac. To each tube was added buffer, 20 μl of 10 mM NADPH and an aliquot of prostatic particulate solution to a final volume of 1.0 ml of 50 mM sodium citrate, pH 5.0. After incubating the solution at 37° C. for 20 to 30 minutes the reaction was quenched by the addition of 4 ml ethyl acetate and 0.25 μmol each of testosterone, dihydrotestosterone, androstanediol, and androstanedione as carriers. The organic layer was removed to a second test tube and evaporated to dryness in a Speed Vac. The residue was dissolved in 20 to 30 μl chloroform, spotted on an individual lane of a 20 x 20 cm prechannelled silica gel TLC plate (Si 250F PA, Baker Chemical) and developed twice with acetone:chloroform (1:9). The radiochemical content in the bands of the substrate and the products was determined with a BIOSCAN Imaging Scanner (Bioscan, Inc., Washington, D.C.). The percent of recovered radiolabel converted to product was calculated, from which enzyme activity was determined. All incubations were conducted such that no more than 12% of the substrate (testosterone) was consumed.
The experimentally obtained data was computer fitted to a linear function by plotting the reciprocal of the enzyme activity (1/velocity) against the variable inhibitor concentration (Dixon, M. (1953), Biochem. J., 55, 170). Assuming that the steroidal inhibitor is a competitive inhibitor against testosterone, a value for the inhibition constant (Ki) can be calculated from equation 1:
Ki =(B/A)/[…]) Equation 1

[2] = tested on: steroid 5-α-reductase; assay: In vivo inhibition of steroid 5-α-reductase: prostatic DHT (and testosterone) levels in rats; set-up: species or system rat
Procedure: Certain compounds of the invention also were tested for their in vivo potency in inhibiting steroid 5-α-reductase activity. Male Charles River CD rats, 48 days old, weighing approximately 200 gm were administered 10 mg/kg of N,N-diisopropyl androst-3,5-diene-17β-carboxamide-3-carboxylic acid dissolved in propylene glycol and diluted in normal saline. Following compound administration the animals were sacrificed, the ventral prostates were excised, and DHT levels were measured by the following procedure.
Prostate tissue was excised, trimmed, weighed, minced and washed with phosphate buffer. The tissue then was homogenized in phosphate buffer and extracted by addition of ethyl acetate and mixing on an orbital mixer for forty-five minutes. The ethyl acetate was evaporated, the residue was reconstituted in ethanol, and was centrifuge filtered using […] filter paper. The components then were separated using reverse-phase HPLC collecting the DHT fraction. The fraction was reduced to dryness and reconstituted in standard DHT assay buffer available from Amersham. DHT levels then were measured using standard techniques such as radioimmunoassay.
Using procedures similar to those described above the in vivo effects of 17β-N-t-butylcarbox-amide-androst-3,5-diene-3-carboxylic acid also were studied. Rats received a single oral dose of vehicle or 5, 10, 20 or 50 mg/kg of this compound.

[3] = tested on: ventral prostate; assay: Effect of repeated dosing on prostatic growth / ventral prostate weight in rats; format: in vivo, rat; conditions: for ventral prostate weight, percent of control: rats, two weeks
Procedure: N,N diisopropyl-androst-3,5 diene 17β-carboxamide-3-carboxylic acid also was tested for its effects on prostatic growth.

[4] = molecular target: steroid 5-α-reductase; conditions: cited from earlier work; for mode of 5-α-reductase inhibition: in words
[5] = tested on: steroid-5-α-reductase; assay: In vitro steroid 5-α-reductase inhibition; format: biochemical; conditions: in words
[6] = tested on: seminal vesicle; assay: Effect of repeated dosing on seminal vesicle weight in rats; format: in vivo, rat; conditions: rats, 1, 5, 10, 25 or 50 mg/kg twice daily, two weeks
[7] = Irreversible, read-out: 5-α-reductase inhibition constant (Table 1)

## CC(C)N(C(=O)[C@H]1CC[C@H]2[C@@H]3CC(C(F)(F)F)=C4C=C(C(=O)O)CC[C@]4(C)[C@H]3CC[C@]12C)C(C)C
[1]
  Ki: 900 nM

## CCOC(=O)C1=CC2=CC[C@H]3[C@@H]4CC[C@H](C(=O)N(C(C)C)C(C)C)[C@@]4(C)CC[C@@H]3[C@@]2(C)CC1
[1]
  Ki: 4000 nM

## CC(C)N(C(=O)[C@H]1CC[C@H]2[C@@H]3CC=C4C=C(C(=O)O)CC[C@]4(C)[C@H]3CC[C@]12C)C(C)C [N,N-Diisopropyl-androst-3,5-diene-17β-carboxamide-3-carboxylic acid]
[2]; male CD rats, 10 mg/kg
  duration of decreased DHT levels: greater than eight
[2]; male CD rats, 10 mg/kg, four hours after administration
  decrease of prostatic DHT levels relative to vehicle-treated controls: forty
[2]; male CD rats, 10 mg/kg, twenty four hours after treatment
  return of prostatic DHT levels to control: had returned to control levels
[3]; immature rats, 0.5 to 50 mg/kg twice daily oral, fourteen days
  prostatic growth: dose dependent decrease in prostatic growth
[3]; immature rats, maximum dose group (50 mg/kg), twice daily oral, fourteen days
  decrease of prostate weight versus controls: forty to fifty

## CC(C)(C)NC(=O)[C@H]1CC[C@H]2[C@@H]3CC[C@H]4C=C(C(=O)O)CC[C@]4(C)[C@H]3CC[C@]12C
[1]
  Ki: 110 nM

## CC(=O)[C@H]1CC[C@H]2[C@@H]3CC=C=CC(=O)CCC(=O)[C@H]3CC[C@]12C [(2)]
[4]; [7]
  Ki: 1000 nM
[4]
  mode of 5-α-reductase inhibition: Irreversible; also recorded: affinity label for 5 -α-reductase

## C[C@H](CO)[C@H]1CC[C@H]2[C@@H]3CC[C@H]4C(F)=C(C(=O)O)CC[C@]4(C)[C@H]3CC[C@]12C
[1]
  Ki: 2000 nM

## CC(C)N(C(=O)[C@H]1CC[C@H]2[C@@H]3CC[C@H]4C(F)=C(C(=O)O)CC[C@]4(C)[C@H]3CC[C@]12C)C(C)C
[1]
  Ki: 26 nM

## COC(=O)C1=CC2=CC[C@H]3[C@@H]4CC[C@H](C(=O)N(C(C)C)C(C)C)[C@@]4(C)CC[C@@H]3[C@@]2(C)CC1 [methyl ester of the above compound, 3-Carbomethoxy-androst-3,5-diene-17β-N,N -diisopropylcarboxamide]
[2]; rats, single 10 mg/kg dose, after six hours
  decrease of prostatic DHT levels relative to vehicle-treated controls: forty eight
[2]; rats, single 10 mg/kg dose, in words
  steroid 5-α-reductase inhibition in vivo: significant enzyme inhibition
[5]
  steroid-5-α-reductase inhibition in vitro: does not inhibit steroid-5-α-reductase in vitro

## CCN(CC)C(=O)[C@H]1CC[C@H]2[C@@H]3CC[C@H]4N(C)C(=O)CC[C@]4(C)[C@H]3CC[C@]12C [(4)]
[4]; Liang, et al., 1983, read-out: 5-α-reductase inhibition constant (Table 1)
  Ki: 5 nM

## C=C1C[C@@H]2[C@H](CC[C@@]3(C)[C@H]2CC[C@]3(OC(C)=O)C(C)=O)[C@@]2(C)CCC(=O)C=C12 [(5)]
[4]; [7]
  Ki: 1250 nM
[4]
  mode of 5-α-reductase inhibition: Irreversible; also recorded: time-dependent inactivator

## C[C@]12CC[C@H]3[C@@H](CCC4=CC(=O)CC[C@@]43C)[C@@H]1CC[C@@H]2C(=O)O [(1)]
[4]; Hsia and Voight 1973, read-out: K1
  Ki: 1100 nM

## CC(CO)[C@H]1CC[C@H]2[C@@H]3CC[C@H]4C(=[N+]=[N-])C(=O)CC[C@]4(C)[C@H]3CC[C@]12C (some centres unmarked) [(3)]
[4]; Irreversible, Blohm, et al., 1980, read-out: 5-α-reductase inhibition constant (Table 1)
  Ki: 35 nM
[4]
  mode of 5-α-reductase inhibition: Irreversible; also recorded: potent, time-dependent inhibitor

## C[C@]12CC[C@H]3[C@@H](CCC4=CC(=O)CC[C@@]43C)[C@@H]1CC[C@@H]2O [testosterone, reference compound]
[1]; determined in a separate experiment, read-out: Km of the substrate (testosterone)
  Km: 4.5 µM

## CC(C)N(C(=O)[C@H]1CC[C@H]2[C@@H]3CC=C4C=C(C(=O)O)C=C[C@]4(C)[C@H]3CC[C@]12C)C(C)C
[1]
  Ki: 50 nM

## CC(C)(C)NC(=O)[C@H]1CC[C@H]2[C@@H]3CC=C4C=C(C(=O)O)CC[C@]4(C)[C@H]3CC[C@]12C [N-t-Butyl Androst-3,5-diene-17β-carboxamide-3-Carboxylic Acid]
[2]; rats, 10 mg/kg, all time points from two to eighteen hours
  prostate dihydrotestosterone levels, percent of controls: approximately sixty
[2]; rats, 10 mg/kg, over twenty four hours
  prostate testosterone levels: viable without consistent trends
[2]; rats, 10 mg/kg, twenty-four hours post treatment
  return of dihydrotestosterone levels to control values: returned to control values
[2]; rats, single oral dose 5, 10, 20 or 50 mg/kg
  prostate testosterone levels: remained unaffected
[2]; rats, single oral dose 5, 10, 20 or 50 mg/kg (all doses)
  prostate dihydrotestosterone levels, percent of controls: approximately fifty
[6]
  seminal vesicle weights: significantly reduced at all treatment levels
[3]; 5 mg/kg twice daily
  ventral prostate weight, percent of control: ninety
[3]; 10 and 50 mg/kg twice daily
  ventral prostate weight, percent of control: sixty five

## CC(C)(C)NC(=O)[C@H]1CC[C@H]2[C@@H]3CC=C4C=C(C(=O)O)CC[C@]4(C)[C@H]3CC[C@]12C [drawing 35]
[1]
  Ki: 30 nM
